In patent US8513423B2 (Janssen Pharmaceutica, NV, priority 2010, dated 2013) one finds IC50 and Kd data, which are given here for two molecules.

One may read the IC50 as the concentration needed to halve the response being measured.

Residue numbers refer to the chain shown, from its start. Like-named read-outs stand apart in the source and are kept apart here. Where only a bound is given, the exact number is not on record here.

For experiment [1], the target named is T1, purified wild type MGL (wt-MGLL 6H-11-313) (Homo sapiens, UniProt Q99685).
T1 construct: purified wild type MGL (wt-MGLL 6H-11-313)
T1 sequence (Q99685 1-303): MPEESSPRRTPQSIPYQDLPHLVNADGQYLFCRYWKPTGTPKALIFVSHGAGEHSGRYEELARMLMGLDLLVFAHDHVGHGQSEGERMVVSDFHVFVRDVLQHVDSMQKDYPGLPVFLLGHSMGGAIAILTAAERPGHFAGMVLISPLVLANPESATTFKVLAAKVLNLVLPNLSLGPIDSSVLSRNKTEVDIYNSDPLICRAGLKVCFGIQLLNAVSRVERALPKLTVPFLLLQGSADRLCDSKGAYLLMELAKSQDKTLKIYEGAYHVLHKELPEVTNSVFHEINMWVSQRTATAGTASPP
Description: MGL enzyme activity assay (4MU-B cleavage), wild type MGL. In kind it is biochemical. The note with it: 10 μM 4MU-B, 5 nM enzyme, 37° C., read-out: MGL wild type inh IC50. In a few lines: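 Enzyme (5 nM final) cleaved 4MU-B (10 μM final) in 20 mM PIPES pH 7.0 with 150 mM NaCl and 0.001% Tween 20. Compounds were tested at 17 to 0.0003 μM final. Fluorescence (ex 335/em 440 nm) was monitored at 37° C for 5 min, and IC50 was fitted from fractional activity versus inhibitor concentration.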

For experiment [2], the target named is T2, mutant MGL (Homo sapiens, UniProt Q99685, L169S/L176S).
T2 construct: purified mutant MGL (mut-MGLL 11-313 L179S L186S)
T2 sequence (Q99685 1-303 L169S/L176S): T1 sequence (Q99685 1-303) with L169S, L176S
The experiment in a line: MGL ThermoFluor assay - mutant. In kind it is binding. In a few lines:
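Thermal shift binding with 0.07 mg/ml L169S/L176S MGL, 100 μM 1,8-ANS, 200 mM NaCl, 0.001% Tween-20, 50 mM PIPES pH 7.0. Heated 40–90 °C at 1 °C/min, fluorescence (em 500 nm) tracked to give Tm; Kd fitted from 11-point concentration–Tm response, qKd when stocks quantified by qNMR.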
In general terms: Differential scanning fluorimetry follows unfolding on heating by fluorescence.

[3] abbreviates: 0.07 mg/ml mutant MGL, pH=7.0, read-out: MGL mutant ThermoFluor Kd.
[4] abbreviates: compound concentration measured by qNMR, read-out: MGL mutant ThermoFluor qKd (using qNMR conc.).

For `Cc1c(C(=O)N2CC(C3CCN(C(=O)c4nccs4)CC3)C2)sc2cc(C(F)(F)F)ccc12` [Cpd 20, 4-(1-{[3-Methyl-6-(trifluoromethyl)-1-benzothiophen-2-yl]carbonyl}azetidin-3-yl)-1-(1,3-thiazol-2-ylcarbonyl)piperidine], the IC50 in experiment [1] was less than 5 nM. The Kd in experiment [2] (setting [3]) was found to be 1 nM; in experiment [2] (setting [4]), 1.3 nM.

With `O=C(c1nccs1)N1CCC(C2CN(C(=O)c3sc4cc(C(F)(F)F)ccc4c3Cl)C2)CC1` [Cpd 29, 4-(1-{[3-Chloro-6-(trifluoromethyl)-1-benzothiophen-2-yl]carbonyl}azetidin-3-yl)-1-(1,3-thiazol-2-ylcarbonyl)piperidine], the IC50 in experiment [1] turned out to be 6 nM. For the same molecule, the Kd was 0.3 nM in experiment [2] (setting [3]) and 1.2 nM in experiment [2] (setting [4]).
